Results from patent US20090181898A1, “ABUSE-RESISTANT A[…]” (SHIRE LLC, priority 2002, published 2009).

Assays:
[1] = molecular target: T1, human recombinant dopamine transport binding sites (DAT) (Homo sapiens, UniProt Q01959); test: Radioligand binding assay, dopamine transporter (NovaScreen)
T1 construct: NovaScreen, Hanover, Md; (contract laboratory that ran the assay)

[2] = Clinical pharmacokinetics, 25 and 75 mg, compared to Adderall XR and Dexedrine Spansule; details: human, in vivo, po; for AUC(0-inf): L-lysine-d-amphetamine intact conjugate AUCinf; for AUC(0-t): L-lysine-d-amphetamine intact conjugate AUClast; for Cmax: L-lysine-d-amphetamine intact conjugate Cmax; for half-life: L-lysine-d-amphetamine intact conjugate T1/2, human; for Tmax: L-lysine-d-amphetamine intact conjugate Tmax; for concentration at 0 h / concentration at 0.5 h / concentration at 1 h / concentration at 2 h / concentration at 3 h / concentration at 4 h / concentration at 5 h / concentration at 6 h / concentration at 7 h / concentration at 8 h / concentration at 10 h / concentration at 12 h / concentration at 16 h / concentration at 24 h / concentration at 48 h / concentration at 72 h: L-lysine-d-amphetamine intact conjugate concentration
[3] = 25 mg, oral 25 mg L-lysine-d-amphetamine, mean
[4] = 25 mg, oral 25 mg L-lysine-d-amphetamine, individual subjects
[5] = 75 mg, oral 75 mg L-lysine-d-amphetamine, mean
[6] = 75 mg, oral 75 mg L-lysine-d-amphetamine, individual subjects

T1 sequence (Q01959 whole entry): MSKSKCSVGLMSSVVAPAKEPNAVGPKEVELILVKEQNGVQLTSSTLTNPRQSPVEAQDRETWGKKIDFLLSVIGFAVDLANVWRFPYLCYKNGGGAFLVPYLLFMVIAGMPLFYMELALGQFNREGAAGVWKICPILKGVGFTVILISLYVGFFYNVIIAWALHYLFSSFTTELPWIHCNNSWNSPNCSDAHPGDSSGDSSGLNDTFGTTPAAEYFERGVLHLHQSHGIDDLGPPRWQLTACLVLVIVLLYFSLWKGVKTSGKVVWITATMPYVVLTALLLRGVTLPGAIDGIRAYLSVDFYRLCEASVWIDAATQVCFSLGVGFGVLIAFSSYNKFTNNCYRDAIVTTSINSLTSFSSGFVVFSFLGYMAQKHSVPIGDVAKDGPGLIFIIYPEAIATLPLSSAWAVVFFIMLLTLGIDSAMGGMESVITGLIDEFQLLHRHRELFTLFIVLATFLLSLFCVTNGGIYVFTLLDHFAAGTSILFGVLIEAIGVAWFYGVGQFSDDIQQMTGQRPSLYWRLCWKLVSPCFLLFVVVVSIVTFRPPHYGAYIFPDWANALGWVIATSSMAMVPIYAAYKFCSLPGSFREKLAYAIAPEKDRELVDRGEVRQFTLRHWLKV

CC(Cc1ccccc1)NC(=O)C(N)CCCCN [L-lysine-d-amphetamine, 2,6-diaminohexanoic acid-(1-methyl-2-phenylethyl)-amide]
inhibition at 10 µM ([1]; 10^−5 mol/L): -0.71%
inhibition at 0.1 µM ([1]; 10^−7 mol/L): 11.5%
inhibition at 0.001 µM ([1]; 10^−9 mol/L): -10.5%
Specific binding to dopamine transport binding sites ([1]; 10^−9 to 10^−5 M): did not bind
Activity ([1]; DA Transporter, radioligand [3H]-WIN35428, 10^−9 to 10^−5 M): No (No activity is defined as producing between −20% and 20% inhibition of radioligand binding (Novascreen).)
AUC(0-inf) [2, 3]: 13.5 ng·h/mL
AUC(0-t) [2, 3]: 11.3 ng·h/mL
Cmax [2, 3]: 11.6 ng/mL
half-life [2, 4]: 0.47 h
half-life [2, 3]: 0.419 h
Tmax [2, 4]: 1 h
Tmax [2, 3]: 1.05 h
concentration at 0 h [2, 4]: 0 ng/mL
concentration at 0 h [2, 3]: 0 ng/mL
concentration at 0.5 h [2, 3]: 5.1 ng/mL
concentration at 1 h [2, 3]: 11.2 ng/mL
concentration at 2 h [2, 3]: 2.2 ng/mL
concentration at 3 h [2, 4]: 0 ng/mL
concentration at 3 h [2, 3]: 0 ng/mL
concentration at 4 h [2, 4]: 0 ng/mL
concentration at 4 h [2, 3]: 0 ng/mL
concentration at 5 h [2, 4]: 0 ng/mL
concentration at 5 h [2, 3]: 0 ng/mL
concentration at 6 h [2, 4]: 0 ng/mL
concentration at 6 h [2, 3]: 0 ng/mL
concentration at 7 h [2, 4]: 0 ng/mL
concentration at 7 h [2, 3]: 0 ng/mL
concentration at 8 h [2, 4]: 0 ng/mL
concentration at 8 h [2, 3]: 0 ng/mL
concentration at 10 h [2, 4]: 0 ng/mL
concentration at 10 h [2, 3]: 0 ng/mL
concentration at 12 h [2, 4]: 0 ng/mL
concentration at 12 h [2, 3]: 0 ng/mL
concentration at 16 h [2, 4]: 0 ng/mL
concentration at 16 h [2, 3]: 0 ng/mL
concentration at 24 h [2, 4]: 0 ng/mL
concentration at 24 h [2, 3]: 0 ng/mL
concentration at 48 h [2, 4]: 0 ng/mL
concentration at 48 h [2, 3]: 0 ng/mL
concentration at 72 h [2, 4]: 0 ng/mL
concentration at 72 h [2, 3]: 0 ng/mL
AUC(0-inf) [2, 5]: 59.5 ng·h/mL
AUC(0-t) [2, 5]: 58.1 ng·h/mL
Cmax [2, 5]: 53.6 ng/mL
half-life [2, 5]: 0.534 h
Tmax [2, 6]: 1 h
Tmax [2, 5]: 1.05 h
concentration at 0 h [2, 6]: 0 ng/mL
concentration at 0 h [2, 5]: 0 ng/mL
concentration at 0.5 h [2, 5]: 20.5 ng/mL
concentration at 1 h [2, 5]: 53 ng/mL
concentration at 2 h [2, 5]: 9.1 ng/mL
concentration at 3 h [2, 5]: 2.6 ng/mL
